From patent US12226412B2, “Heteroaryl-ketone fused azadecalin glucocorticoid receptor modulators” (Corcept Therapeutics, Inc., priority 2012, dated 2025)
Like-named read-outs stand apart in the source and are kept apart here.

Assays:
human recombinant GR = target: T1, human recombinant GR (Homo sapiens, UniProt P04150); experiment: Human glucocorticoid receptor (GR) fluorescence polarisation (FP) binding assay
T1 construct: purchased PanVera P2812
T1 sequence (P04150 1-777): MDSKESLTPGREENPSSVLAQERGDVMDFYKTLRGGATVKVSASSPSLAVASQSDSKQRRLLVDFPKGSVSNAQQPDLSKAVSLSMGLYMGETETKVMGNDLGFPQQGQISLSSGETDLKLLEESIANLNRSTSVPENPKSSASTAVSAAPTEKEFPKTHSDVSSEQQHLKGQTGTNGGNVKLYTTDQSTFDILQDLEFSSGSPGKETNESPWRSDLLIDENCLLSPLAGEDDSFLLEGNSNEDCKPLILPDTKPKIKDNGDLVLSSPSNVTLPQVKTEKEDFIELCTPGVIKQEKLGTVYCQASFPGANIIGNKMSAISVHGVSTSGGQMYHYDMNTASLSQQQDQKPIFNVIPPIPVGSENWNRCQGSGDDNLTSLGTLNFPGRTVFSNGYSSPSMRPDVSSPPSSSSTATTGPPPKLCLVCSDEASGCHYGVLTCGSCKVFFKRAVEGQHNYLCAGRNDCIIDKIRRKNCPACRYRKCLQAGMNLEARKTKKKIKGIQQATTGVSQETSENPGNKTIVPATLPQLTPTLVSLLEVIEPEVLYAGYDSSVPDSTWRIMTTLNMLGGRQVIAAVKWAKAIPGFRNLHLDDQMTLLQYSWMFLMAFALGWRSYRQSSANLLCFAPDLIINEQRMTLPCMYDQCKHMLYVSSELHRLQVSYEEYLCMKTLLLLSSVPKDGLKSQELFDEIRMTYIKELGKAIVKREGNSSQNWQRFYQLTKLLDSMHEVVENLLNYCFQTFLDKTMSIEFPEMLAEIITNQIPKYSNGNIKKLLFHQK
Method in brief: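 Competition fluorescence polarisation: 0.5 nM GS Red labelled glucocorticoid and 1 nM recombinant human GR with 8-point half-log compound series, 1% DMSO, 4 h room temperature, potassium phosphate pH 7.4 buffer with molybdate, EDTA, DTT. Affinity derived from the drop in polarisation, normalised to blank wells.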

[1] = system: induction of TAT by dexamethasone in HepG2 cells; experiment: HepG2 tyrosine aminotransferase (TAT) assay; format: cell-based, human
[2] = human recombinant GR, fluorescence polarisation binding assay, read-out: GR binding
[3] = HepG2 cells, challenge of 100 nM dexamethasone, Ki from IC50 by Cheng and Prusoff equation

Row | Ki (human recombinant GR; [2]) | SMILES | Ki [1, 3] | Ki (human recombinant GR) | Ki [1]
1 | < 0.5 nM | CCCn1cc(S(=O)(=O)N2CCC3=Cc4c(cnn4-c4ccc(F)cc4)C[C@]3(C(=O)c3cscn3)C2)cn1 [Example 11CZ, (R)-(1-(4-fluorophenyl)-6-((1-propyl-1H-pyrazol-4-yl)sulfonyl)-4,4a,5,6,7,8-hexahydro-1H-pyrazolo[3,4-g]isoquinolin-4a-yl)(thiazol-4-yl)methanone] | < 20 nM | – | –
2 | < 0.5 nM | COc1ccc(S(=O)(=O)N2CCC3=Cc4c(cnn4-c4ccc(F)cc4)C[C@]3(C(=O)c3ccccn3)C2)cc1F [Example 11D, (R)-(6-((3-fluoro-4-methoxyphenyl)sulfonyl)-1-(4-fluorophenyl)-4,4a,5,6,7,8-hexahydro-1H-pyrazolo[3,4-g]isoquinolin-4a-yl)(pyridin-2-yl)methanone] | < 20 nM | – | –
3 | < 0.5 nM | Cc1ccc(S(=O)(=O)N2CCC3=Cc4c(cnn4-c4ccc(F)cc4)C[C@]3(C(=O)c3ccccn3)C2)c(F)c1 [Example 11E, (R)-(6-((2-fluoro-4-methylphenyl)sulfonyl)-1-(4-fluorophenyl)-4,4a,5,6,7,8-hexahydro-1H-pyrazolo[3,4-g]isoquinolin-4a-yl)(pyridin-2-yl)methanone] | 20 to 100 nM | – | –
4 | < 0.5 nM | Cc1cccc(S(=O)(=O)N2CCC3=Cc4c(cnn4-c4ccc(F)cc4)C[C@]3(C(=O)c3cscn3)C2)c1 [Example 11F, (R)-(1-(4-fluorophenyl)-6-(m-tolylsulfonyl)-4,4a,5,6,7,8-hexahydro-1H-pyrazolo [3,4-g]isoquinolin-4a-yl)(thiazol-4-yl)methanone] | 20 to 100 nM | – | –
5 | – | N#Cc1cccc(S(=O)(=O)N2CCC3=Cc4c(cnn4-c4ccc(F)cc4)C[C@]3(C(=O)c3ccccn3)C2)c1 [Example 11G, (R)-3-((1-(4-fluorophenyl)-4a-picolinoyl-4a,5,7,8-tetrahydro-1H-pyrazolo[3,4-g]isoquinolin-6 (4H)-yl)sulfonyl)benzonitrile] | – | < 0.5 nM | < 20 nM
6 | < 0.5 nM | O=C(c1ccccn1)[C@]12Cc3cnn(-c4ccc(F)cc4)c3C=C1CCN(S(=O)(=O)c1ccc(OC(F)F)cc1)C2 [Example 11H, (R)-(6-((4-(difluoromethoxy)phenyl)sulfonyl)-1-(4-fluorophenyl)-4,4a,5,6,7,8-hexahydro-1H-pyrazolo[3,4-g]isoquinolin-4a-yl)(pyridin-2-yl)methanone] | < 20 nM | – | –
7 | < 0.5 nM | O=C(c1ccccn1)[C@]12Cc3cnn(-c4ccc(F)cc4)c3C=C1CCN(S(=O)(=O)c1cccc(OC(F)(F)F)c1)C2 [Example 11I, (R)-(1-(4-fluorophenyl)-6-((3-(trifluoromethoxy)phenyl)sulfonyl)-4,4a,5,6,7,8-hexahydro-1H-pyrazolo[3,4-g]isoquinolin-4a-yl)(pyridin-2-yl)methanone] | < 20 nM | – | –
8 | < 0.5 nM | O=C(c1ccccn1)[C@]12Cc3cnn(-c4ccc(F)cc4)c3C=C1CCN(S(=O)(=O)c1cc(F)cc(F)c1)C2 [Example 11J, (R)-(6-((3,5-difluorophenyl)sulfonyl)-1-(4-fluorophenyl)-4,4a,5,6,7,8-hexahydro-1H-pyrazolo[3,4-g]isoquinolin-4a-yl)(pyridin-2-yl)methanone] | < 20 nM | – | –
9 | < 0.5 nM | Cc1ccc(S(=O)(=O)N2CCC3=Cc4c(cnn4-c4ccc(F)cc4)C[C@]3(C(=O)c3cscn3)C2)cc1 [Example 11K, (R)-(1-(4-fluorophenyl)-6-tosyl-4,4a,5,6,7,8-hexahydro-1H-pyrazolo[3,4-g]isoquinolin-4a-yl)(thiazol-4-yl)methanone] | < 20 nM | – | –
10 | < 0.5 nM | O=C(c1ccccn1)[C@]12Cc3cnn(-c4ccc(F)cc4)c3C=C1CCN(S(=O)(=O)c1cccc(OC(F)F)c1)C2 [Example 11L, (R)-(6-((3-(difluoromethoxy)phenyl)sulfonyl)-1-(4-fluorophenyl)-4,4a,5,6,7,8-hexahydro-1H-pyrazolo[3,4-g]isoquinolin-4a-yl)(pyridin-2-yl)methanone] | < 20 nM | – | –
11 | < 0.5 nM | Cc1ccc(S(=O)(=O)N2CCC3=Cc4c(cnn4-c4ccc(F)cc4)C[C@]3(C(=O)c3ccccn3)C2)cc1C [Example 11M, (R)-(6-((3,4-dimethylphenyl)sulfonyl)-1-(4-fluorophenyl)-4,4a,5,6,7,8-hexahydro-1H-pyrazolo[3,4-g]isoquinolin-4a-yl)(pyridin-2-yl)methanone] | < 20 nM | – | –
12 | < 0.5 nM | Cc1cc(C)cc(S(=O)(=O)N2CCC3=Cc4c(cnn4-c4ccc(F)cc4)C[C@]3(C(=O)c3ccccn3)C2)c1 [Example 11N, (R)-(6-((3,5-dimethylphenyl)sulfonyl)-1-(4-fluorophenyl)-4,4a,5,6,7,8-hexahydro-1H-pyrazolo[3,4-g]isoquinolin-4a-yl)(pyridin-2-yl)methanone] | < 20 nM | – | –
13 | < 0.5 nM | Cc1cccc(S(=O)(=O)N2CCC3=Cc4c(cnn4-c4ccc(F)cc4)C[C@]3(C(=O)c3ccccn3)C2)n1 [Example 11O, (R)-(1-(4-fluorophenyl)-6-((6-methylpyridin-2-yl)sulfonyl)-4,4a,5,6,7,8-hexahydro-1H-pyrazolo[3,4-g]isoquinolin-4a-yl)(pyridin-2-yl)methanone] | < 20 nM | – | –
14 | – | O=C(c1ccccn1)[C@]12Cc3cnn(-c4ccc(F)cc4)c3C=C1CCN(S(=O)(=O)c1ccc(F)c(F)c1)C2 [Example 11P, (R)-(6-((3,4-difluorophenyl)sulfonyl)-1-(4-fluorophenyl)-4,4a,5,6,7,8-hexahydro-1H-pyrazolo[3,4-g]isoquinolin-4a-yl)(pyridin-2-yl)methanone] | – | < 0.5 nM | < 20 nM
15 | < 0.5 nM | O=C(c1ccccn1)[C@]12Cc3cnn(-c4ccc(F)cc4)c3C=C1CCN(S(=O)(=O)c1cc(F)c(F)c(F)c1)C2 [Example 11Q, (R)-(1-(4-fluorophenyl)-6-((3,4,5-trifluorophenyl)sulfonyl)-4,4a,5,6,7,8-hexahydro-1H-pyrazolo[3,4-g]isoquinolin-4a-yl)(pyridin-2-yl)methanone] | < 20 nM | – | –
16 | < 0.5 nM | O=C(c1ccccn1)[C@]12Cc3cnn(-c4ccc(F)cc4)c3C=C1CCN(S(=O)(=O)c1ccc(F)c(Cl)c1)C2 [Example 11R, (R)-(6-((3-chloro-4-fluorophenyl)sulfonyl)-1-(4-fluorophenyl)-4,4a,5,6,7,8-hexahydro-1H-pyrazolo[3,4-g]isoquinolin-4a-yl)(pyridin-2-yl)methanone] | < 20 nM | – | –
17 | < 0.5 nM | Cc1ccnc(C(=O)[C@]23Cc4cnn(-c5ccc(F)cc5)c4C=C2CCN(S(=O)(=O)c2cccc(C#N)c2)C3)c1 [Example 11S, (R)-3-((1-(4-fluorophenyl)-4a-(4-methylpicolinoyl)-4a,5,7,8-tetrahydro-1H-pyrazolo[3,4-g]isoquinolin-6 (4H)-yl)sulfonyl)benzonitrile] | < 20 nM | – | –
18 | < 0.5 nM | Cc1ccnc(C(=O)[C@]23Cc4cnn(-c5ccc(F)cc5)c4C=C2CCN(S(=O)(=O)c2cnn(C)c2)C3)c1 [Example 11T, (R)-(1-(4-fluorophenyl)-6-((1-methyl-1H-pyrazol-4-yl)sulfonyl)-4,4a,5,6,7,8-hexahydro-1H-pyrazolo[3,4-g]isoquinolin-4a-yl)(4-methylpyridin-2-yl)methanone] | < 20 nM | – | –
19 | < 0.5 nM | Cc1ccnc(C(=O)[C@]23Cc4cnn(-c5ccc(F)cc5)c4C=C2CCN(S(=O)(=O)c2ccc(F)c(F)c2)C3)c1 [Example 11U, (R)-(6-((3,4-difluorophenyl)sulfonyl)-1-(4-fluorophenyl)-4,4a,5,6,7,8-hexahydro-1H-pyrazolo[3,4-g]isoquinolin-4a-yl)(4-methylpyridin-2-yl)methanone] | < 20 nM | – | –
20 | < 0.5 nM | Cc1ccnc(C(=O)[C@]23Cc4cnn(-c5ccc(F)cc5)c4C=C2CCN(S(=O)(=O)c2cn(C)cn2)C3)c1 [Example 11V, (R)-(1-(4-fluorophenyl)-6-((1-methyl-1H-imidazol-4-yl)sulfonyl)-4,4a,5,6,7,8-hexahydro-1H-pyrazolo[3,4-g]isoquinolin-4a-yl)(4-methylpyridin-2-yl)methanone] | 20 to 100 nM | – | –
21 | < 0.5 nM | Cc1ccnc(C(=O)[C@]23Cc4cnn(-c5ccc(F)cc5)c4C=C2CCN(S(=O)(=O)c2cc(F)cc(F)c2)C3)c1 [Example 11W, (R)-(6-((3,5-difluorophenyl)sulfonyl)-1-(4-fluorophenyl)-4,4a,5,6,7,8-hexahydro-1H-pyrazolo[3,4-g]isoquinolin-4a-yl)(4-methylpyridin-2-yl)methanone] | < 20 nM | – | –
